This experiment has as its target B-Raf (V600E)-kinase (Homo sapiens (Human), UniProt P15056, V600E). In words: Kinase test B-Raf (V600E). Particulars: 250 μM ATP, biotinylated MEK1 substrate. The class given is biochemical. On the procedure: In a dilution series 10 μL of test substance solution are placed in a multiwell plate. The dilution series is selected so that generally a range of concentrations of 2 μM to 0.128 nM or 0.017 nM is covered. If necessary the initial concentration of 2 μM is changed to 50 μM, 10 μM or 0.4 μM or 0.2857 μM and further dilution is carried out accordingly. The final concentration of DMSO is 5%. 10 μL of the B-Raf (V600E)-kinase solution are pipetted in (containing 0.5 ng B-Raf (V600E)-kinase in 20 mM Tris-HCl pH 7.5, 0.1 mM EDTA, 0.1 mM EGTA, 0.286 mM sodium orthovanadate, 10% glycerol, 1 mg/mL bovine serum albumin, 1 mM dithiothreitol) and the mixture is incubated for 1 h at RT under with shaking. The kinase reaction is started by the addition of 20 μL ATP solution [final concentration: 250 μM ATP, 30 mM Tris-HCl pH 7.5, 0.02% Brij, 0.2 mM sodium orthovanadate, 10 mM magnesium acetate, phosphatase cocktail (Sigma, #P2850, dilution recommended by the manufacturer), 0.1 mM EGTA] and 10 μL MEK1 solution [containing 50 ng biotinylated MEK1 (prepared from purified MEK1 according to standard procedure, e.g. with EZ-Link Sulpho-NHS-LC-Biotin reagent, Pierce, #21335) in 50 mM Hepes pH 7.5, 150 mM NaCl, 10% glycerol, 0.02% Brij-35, 0.2 mM PMSF, 0.2 mM benzamidine] and carried out for 60 min at RT with constant shaking. The reaction is stopped by the addition of 12 μL of a 100 mM EDTA solution and incubation is continued for a further 5 min. 55 μL of the reaction solution are transferred into a streptavidin-coated plate (e.g. Streptawell HighBond, Roche, #11989685001) and shaken gently for 1 h at RT, in order to bind biotinylated MEK1 to the plate. After elimination of the liquid the plate is washed five times with 200 μL of 1×PBS and 100 μL solution of primary antibody plus europium-labelled secondary antibody [Anti Phospho-MEK (Ser217/221), Cell Signaling, #9121 and Eu-N1 labeled goat-anti-rabbit antibody, Perkin Elmer, #AD0105], the primary antibody is diluted 1:2000 and the secondary antibody is diluted to 0.4-0.5 μg/mL in Delfia Assay Buffer (Perkin Elmer, #1244-111). After 1 h shaking at RT the solution is poured away and washed five times with 200 μL Delfia Wash Buffer (Perkin Elmer, #4010-0010/#1244-114). After the addition of 200 μL Enhancement Solution (Perkin Elmer, #4001-0010/#1244-105) the mixture is shaken for 10 min at RT and then measured in a Wallac Victor using the program “Delfia Time Resolved Fluorescence (Europium)”. IC50 values are obtained from these dosage-activity curves using a software program (GraphPadPrizm).

Bounds are passed on as bounds.

Sequence of B-Raf (V600E)-kinase (P15056 whole entry V600E): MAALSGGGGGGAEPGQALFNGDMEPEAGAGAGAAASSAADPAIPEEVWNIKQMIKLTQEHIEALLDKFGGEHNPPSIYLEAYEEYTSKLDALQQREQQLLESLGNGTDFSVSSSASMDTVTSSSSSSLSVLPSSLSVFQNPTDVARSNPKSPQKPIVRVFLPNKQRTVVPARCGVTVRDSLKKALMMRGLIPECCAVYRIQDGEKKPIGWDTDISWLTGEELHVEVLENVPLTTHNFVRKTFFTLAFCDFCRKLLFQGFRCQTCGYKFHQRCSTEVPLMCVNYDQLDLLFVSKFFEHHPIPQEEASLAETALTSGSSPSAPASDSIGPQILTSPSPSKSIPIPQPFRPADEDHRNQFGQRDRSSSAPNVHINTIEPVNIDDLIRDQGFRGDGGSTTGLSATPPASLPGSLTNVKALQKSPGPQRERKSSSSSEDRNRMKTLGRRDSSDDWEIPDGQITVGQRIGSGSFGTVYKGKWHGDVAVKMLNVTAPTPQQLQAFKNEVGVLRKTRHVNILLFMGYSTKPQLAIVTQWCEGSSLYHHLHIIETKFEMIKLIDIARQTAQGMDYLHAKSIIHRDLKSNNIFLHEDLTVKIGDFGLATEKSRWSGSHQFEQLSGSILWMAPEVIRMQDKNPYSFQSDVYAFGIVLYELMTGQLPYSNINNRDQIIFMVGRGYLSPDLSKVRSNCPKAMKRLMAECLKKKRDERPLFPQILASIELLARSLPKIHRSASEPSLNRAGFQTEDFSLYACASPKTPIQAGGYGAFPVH

As to `COc1ccc(NC(=O)c2ccc(C)c(Nc3ncnc4cnc(N5CCOCC5)cc34)c2)cc1C(F)(F)F` [I-1], half-maximal inhibition (IC50) required 0.106 µM.
Under `COc1ccc(NC(=O)c2ccc(C)c(Nc3ncnc4cnc(N5CCN(C)CC5)cc34)c2)cc1C(F)(F)F` [I-2] stands 0.224 µM.
Under `COc1ccc(NC(=O)c2ccc(C)c(Nc3ncnc4cnc(N5CCCC5)cc34)c2)cc1C(F)(F)F` [I-3] stands 0.316 µM; under `Cc1ccc(C(=O)N2CCOCC2)cc1Nc1ncnc2cnc(N3CCOCC3)cc12` [I-4], more than 1.4 µM.
Regarding `COc1ccc(NC(=O)c2ccc(C)c(Nc3ncnc4ccc(N5CCOCC5)nc34)c2)cc1C(F)(F)F` [III-1], the IC50 (as a rule, the concentration that gives 50% inhibition) was determined as 0.011 µM.
`Cc1ccc(C(=O)Nc2cc(C(C)(C)C)on2)cc1Nc1ncnc2ccc(N3CCOCC3)nc12` [III-2]: the IC50 was determined as 0.032 µM.
Under `Cc1ccc(C(=O)Nc2cccc(C(C)(C)C#N)c2)cc1Nc1ncnc2ccc(N3CCOCC3)nc12` [III-3] stands 0.007 µM; under `Cc1ccc(C(=O)n2nc(C(C)(C)C)cc2N)cc1Nc1ncnc2ccc(N3CCOCC3)nc12` [III-4], 2.06 µM; under `Cc1ccc(C(=O)Nc2cc(C(C)(C)C)n[nH]2)cc1Nc1ncnc2ccc(N3CCOCC3)nc12` [III-5], 0.007 µM.
For the molecule `Cc1ccc(C(=O)Nc2cc(C(C)(C)C)nn2C)cc1Nc1ncnc2ccc(N3CCOCC3)nc12` [III-6], inhibition was half-maximal at 0.015 µM (IC50).
For `Cc1ccc(C(=O)Nc2cc(N3CCN(C)CC3)cc(C(F)(F)F)c2)cc1Nc1ncnc2ccc(N3CCOCC3)nc12` [III-7], the IC50 is 0.004 µM.
Consider `Cc1ccc(C(=O)Nc2cc(N3CCCN(C)CC3)cc(C(F)(F)F)c2)cc1Nc1ncnc2ccc(N3CCOCC3)nc12` [III-8], for which the IC50 came to 0.005 µM.
Under `Cc1ccc(C(=O)Nc2cc(CN3CCCC3)cc(C(F)(F)F)c2)cc1Nc1ncnc2ccc(N3CCOCC3)nc12` [III-9] stands 0.004 µM; under `Cc1ccc(C(=O)Nc2cc(C(C)(C)C)on2)cc1Nc1ncnc2ccc(N3CCN(C)CC3)nc12` [III-10], 0.012 µM; under `COCCN1CCN(c2ccc3ncnc(Nc4cc(C(=O)Nc5cc(C(C)(C)C)on5)ccc4C)c3n2)CC1` [III-11], 0.035 µM.
Under `Cc1ccc(C(=O)Nc2cc(C(C)(C)C)on2)cc1Nc1ncnc2ccc(N3CCN(CC4CCN(C)CC4)CC3)nc12` [III-12] stands 0.012 µM; under `COc1ccc(NC(=O)c2ccc(C)c(Nc3ncnc4ccc(N5CCN(C)CC5)nc34)c2)cc1C(F)(F)F` [III-13], 0.057 µM.
Under `COCCN1CCN(c2ccc3ncnc(Nc4cc(C(=O)Nc5ccc(OC)c(C(F)(F)F)c5)ccc4C)c3n2)CC1` [III-14] stands 0.14 µM; under `COc1ccc(NC(=O)c2ccc(C)c(Nc3ncnc4ccc(N5CCN(CC6CCN(C)CC6)CC5)nc34)c2)cc1C(F)(F)F` [III-15], 0.026 µM.
`COc1ccc(NC(=O)c2ccc(C)c(Nc3ncnc4ccc(N(C)C)nc34)c2)cc1C(F)(F)F` [III-16] returned an IC50 of 0.044 µM.
As to `Cc1ccc(C(=O)Nc2cc(C(C)(C)C)on2)cc1Nc1ncnc2ccc(N(C)C)nc12` [III-17], the IC50 worked out at 0.009 µM.
Take `COc1c(NC(=O)c2ccc(C)c(Nc3ncnc4ccc(N5CCN(C)CC5)nc34)c2)cc(C(C)(C)C)cc1NS(C)(=O)=O` [III-18]: the IC50 worked out at 0.225 µM.
`COCCN1CCN(c2ccc3ncnc(Nc4cc(C(=O)Nc5cc(C(C)(C)C)cc(NS(C)(=O)=O)c5OC)ccc4C)c3n2)CC1` [III-19] came in with an IC50 of 0.476 µM.
Molecule `COc1c(NC(=O)c2ccc(C)c(Nc3ncnc4ccc(N(C)C5CCOC5)nc34)c2)cc(C(C)(C)C)cc1NS(C)(=O)=O` (stereo not shown) [III-20] returned an IC50 of 0.024 µM.
As for `COc1c(NC(=O)c2ccc(C)c(Nc3ncnc4ccc(NC5CCOC5)nc34)c2)cc(C(C)(C)C)cc1NS(C)(=O)=O` (stereo not shown) [III-21], 0.03 µM corresponded to half-maximal inhibition (IC50).
As to `COc1c(NC(=O)c2ccc(C)c(Nc3ncnc4ccc(N5CC[C@@H](F)C5)nc34)c2)cc(C(C)(C)C)cc1NS(C)(=O)=O` [III-22], the IC50 worked out at 0.025 µM.
In turn, `CCN1CCN(c2ccc3ncnc(Nc4cc(C(=O)Nc5cc(C(C)(C)C)cc(NS(C)(=O)=O)c5OC)ccc4C)c3n2)CC1` [III-23] came in with an IC50 of 0.508 µM.
Under `COc1c(NC(=O)c2ccc(C)c(Nc3ncnc4ccc(N5CCOCC5)nc34)c2)cc(C(C)(C)C)cc1NS(C)(=O)=O` [III-24] stands 0.05 µM.
Under `COc1c(NC(=O)c2ccc(C)c(Nc3ncnc4ccc(N5CCN(CCN6CCOCC6)CC5)nc34)c2)cc(C(C)(C)C)cc1NS(C)(=O)=O` [III-25] stands 0.638 µM; under `COc1c(NC(=O)c2ccc(C)c(Nc3ncnc4ccc(N5CCC(N6CCOCC6)C5)nc34)c2)cc(C(C)(C)C)cc1NS(C)(=O)=O` (stereo not shown) [III-26], 1.46 µM; under `COc1c(NC(=O)c2ccc(C)c(Nc3ncnc4ccc(C5=CCNCC5)nc34)c2)cc(C(C)(C)C)cc1NS(C)(=O)=O` [III-27], 0.101 µM.
Under `COc1c(NC(=O)c2ccc(C)c(Nc3ncnc4ccc(C)nc34)c2)cc(C(C)(C)C)cc1NS(C)(=O)=O` [III-28] stands 0.431 µM.
Molecule `COc1c(NC(=O)c2ccc(C)c(Nc3ncnc4ccc(C5=CCN(C(C)C)CC5)nc34)c2)cc(C(C)(C)C)cc1NS(C)(=O)=O` [III-29] gave an IC50 of 0.295 µM.
`COc1c(NC(=O)c2ccc(C)c(Nc3ncnc4ccc(C5=CCN(C)CC5)nc34)c2)cc(C(C)(C)C)cc1NS(C)(=O)=O` [III-30]: the IC50 was 0.344 µM.
`COc1c(NC(=O)c2ccc(C)c(Nc3ncnc4ccc(C5CCNCC5)nc34)c2)cc(C(C)(C)C)cc1NS(C)(=O)=O` [III-31] returned an IC50 of 0.07 µM.
As for `COc1c(NC(=O)c2ccc(C)c(Nc3ncnc4ccc(C5CCN(C)CC5)nc34)c2)cc(C(C)(C)C)cc1NS(C)(=O)=O` [III-32], half-maximal inhibition (IC50) required 0.151 µM.
`CCN1CCC(c2ccc3ncnc(Nc4cc(C(=O)Nc5cc(C(C)(C)C)cc(NS(C)(=O)=O)c5OC)ccc4C)c3n2)CC1` [III-33]: it took 0.185 µM to reach half-maximal inhibition (IC50).
Under `COc1c(NC(=O)c2ccc(C)c(Nc3ncnc4ccc(C5CCN(C(C)C)CC5)nc34)c2)cc(C(C)(C)C)cc1NS(C)(=O)=O` [III-34] stands 0.257 µM.
Under `COc1c(NC(=O)c2ccc(C)c(Nc3ncnc4ccc(C5CCN(CC6CC6)CC5)nc34)c2)cc(C(C)(C)C)cc1NS(C)(=O)=O` [III-35] stands 0.288 µM; under `COCCN1CCC(c2ccc3ncnc(Nc4cc(C(=O)Nc5cc(C(C)(C)C)cc(NS(C)(=O)=O)c5OC)ccc4C)c3n2)CC1` [III-36], 0.443 µM; under `COc1c(NC(=O)c2ccc(C)c(Nc3ncnc4ccc(CC5CCNCC5)nc34)c2)cc(C(C)(C)C)cc1NS(C)(=O)=O` [III-37], 0.17 µM.
In turn, `COc1c(NC(=O)c2ccc(C)c(Nc3ncnc4ccc(C5=CCNC5)nc34)c2)cc(C(C)(C)C)cc1NS(C)(=O)=O` [III-38] registered an IC50 of 0.282 µM.
The molecule `COc1c(NC(=O)c2ccc(C)c(Nc3ncnc4ccc(C5CCNC5)nc34)c2)cc(C(C)(C)C)cc1NS(C)(=O)=O` (stereo not shown) [III-39] yielded an IC50 of 0.151 µM.
Under `COc1c(NC(=O)c2ccc(C)c(Nc3ncnc4ccc(C5CCN(C)C5)nc34)c2)cc(C(C)(C)C)cc1NS(C)(=O)=O` (stereo not shown) [III-40] stands 0.286 µM.
With `COCCN1CCC(c2ccc3ncnc(Nc4cc(C(=O)Nc5cc(C(C)(C)C)cc(NS(C)(=O)=O)c5OC)ccc4C)c3n2)C1` (stereo not shown) [III-41], the IC50 amounted to 0.315 µM.
Under `COc1c(NC(=O)c2ccc(C)c(Nc3ncnc4ccc(C5CCCNC5)nc34)c2)cc(C(C)(C)C)cc1NS(C)(=O)=O` (stereo not shown) [III-42] stands 0.229 µM.
